Assay results taken from patent US10369134B2, “Nonracemic mixtures and uses thereof” (Sunovion Pharmaceuticals Inc., priority 2017, dated 2019).

System: freely moving rats
Test: Sleep study of 85:15 (R:S-amisulpride) and racemic amisulpride (EEG/EMG)
Type: in vivo
Conditions: rat, p.o., R-amisulpride content of the total dose
Experimental: Groups in this study were as follows. Test compound was administered to rats in a cross-over design.
Vehicle or fixed ratio amisulpride dosing solutions were orally administered 10 min before the beginning of light phase (light phase: 10:00 AM to 10:00 PM). The individual dosing volume was 4 mL/kg. The individual dosing volume was calculated based on the animals' body weight measured on each experimental day. At least 1-week wash-out period after each treatment was provided.
The R-amisulpride and S-amisulpride were separately weighed. […]
A radio transmitter was implanted intraperitoneally in each anesthetized animal (sodium pentobarbital, 32.4 mg/kg, i.p. and medetomidine hydrochloride, 0.5 mg/kg, i.p.). […] Electromyograms (EMG) were recorded from the dorsal neck muscle. […] EEG/EMG was recorded in the home cages in a soundproof box using Dataquest A.R.T. software (Data Science International, New Brighton, Minn., USA) at a sampling rate of 500 Hz. […]
All data were expressed as a mean±SEM. Difference between 85/15 and 50/50 amisulpride at each dose in each sleep architecture (i.e. REM sleep duration, NREM sleep duration, and WAKE duration) during the first 4 hours after administration were assessed by a repeated measures one-way ANOVA, followed by post-hoc Bonferroni multiple comparison test. […]

Structure (SMILES): CCN1CCC[C@@H]1CNC(=O)c1cc(S(=O)(=O)CC)c(N)cc1OC [(R)-amisulpride, R-4-Amino-N-[(1-ethyl-2-pyrrolidinyl)methyl]-5-(ethylsulfonyl)-2-methoxybenzamide]
- dose of R-amisulpride at which REM sleep suppression was saturated: ≥ 50 mg/kg
